Measured values taken from US10485236B2, “Triazole derivatives, intermediates thereof and their use as fungicides” (Bayer CropScience Aktiengesellschaft, priority 2015, dated 2019).
Marks after values point to notes of the source that are not given here.

Assay: Measurement of LogP values by HPLC on reversed phase columns (EEC directive 79/831 Annex V.A8)
Assay type: physicochemical
Conditions: not given
Experimental: [table] If more than one Log P value is available within the same method, all the values are given and separated by “+”. Calibration was done with straight-chain alkan2-ones (with 3 to 16 carbon atoms) with known Log P values (measurement of Log P values using retention times with linear interpolation between successive alkanones). Lambda-max-values were determined using UV-spectra from 200 nm to 400 nm and the peak values of the chromatographic signals.

SMILES	LogP
OC(Cn1cncn1)c1ccc(Oc2ccc(C(F)(F)F)cc2)nc1C(F)(F)F (stereo not shown) [I.61]	2.84^[a]
CC(=O)c1ccc(Oc2ccc(S(F)(F)(F)(F)F)cc2)nc1Cl [V.30]	3.99^[a]
OC(Cn1cncn1)(c1ccc(Oc2ccc(C(F)(F)F)cc2)nc1C(F)(F)F)C1CC1 (stereo not shown) [I.87]	3.57^[a]
CC(=O)c1ccc(Oc2ccc(Cl)c(Cl)c2)nc1Cl [V.11]	4.10^[a]
CC(=O)c1cnc(Oc2ccc(Cl)cc2)cc1C(C)=O [V.19]	3.11^[a]
CC(C)c1ccc(Oc2ccc(C(=O)Cn3cncn3)c(C(F)(F)F)n2)cc1 [VII.34]	3.44^[a]
Cc1cc(Cl)ccc1Oc1ccc(C(C)(O)Cn2cncn2)c(Cl)n1 (racemic) [I.28]	2.94^[a]
O=C(Cn1cncn1)c1ccc(Oc2ccccc2)nc1Cl [VII.06]	2.21^[a]
O=C(CCl)c1ccc(Oc2c(F)cc(Cl)cc2F)nc1C(F)(F)F [VI.31]	4.26^[a]
O=C(c1ccc(Oc2ccc(Br)cc2)nc1C(F)(F)F)C1CC1 [V.40]	4.49^[a]
CCCC(O)(Cn1cncn1)c1ccc(Oc2ccc(Cl)cc2)nc1C(F)(F)F (stereo not shown) [I.100]	3.55^[a]
CC(O)(Cn1cncn1)c1ccc(Oc2ccc(F)cc2)nc1Oc1ccc(F)cc1 (stereo not shown) [I.77]	3.13^[a]
CCCCC(O)(Cn1cncn1)c1ccc(Oc2ccc(Cl)cc2)nc1C(F)(F)F (stereo not shown) [I.98]	3.87^[a]
O=C(Cn1cncn1)c1ccc(Oc2cc(F)c(F)c(F)c2)nc1Cl [VII.15]	2.66^[a]
CC(O)(Cn1cncn1)c1cnc(Oc2ccc(C(F)F)cc2)cc1C(F)(F)F (stereo not shown) [I.56]	2.73^[a]
O=C(Cn1cncn1)c1ccc(Oc2ccc(F)cc2)nc1Cl [VII.12]	2.30^[a]
O=C(Cn1cncn1)c1ccc(Oc2ccc(C(F)F)cc2)nc1Cl [VII.22]	2.39^[a]
O=C(CCl)c1ccc(Oc2ccc(C(F)F)cc2)nc1C(F)(F)F [VI.36]	3.50^[a]
CC(=O)c1cnc(Oc2ccc(OC(F)(F)F)cc2)cc1C(F)(F)F [V.15]	4.20^[a]
OC(Cn1cncn1)c1ccc(Oc2ccc(OC(F)(F)F)cc2)nc1Cl (racemic) [I.12]	2.73^[a]
OC(Cn1cncn1)(c1ccc(Oc2ccc(Br)cc2)nc1C(F)(F)F)C1CC1 (single isomer, unassigned) [Example 1.84]	3.41^[a]

SMILES	LogP
OC(Cn1cncn1)c1ccc(Oc2ccc(S(F)(F)(F)(F)F)cc2)nc1Cl (racemic) [I.34]	2.90^[a]
CC(=O)c1ccc(Oc2ccc(OC(F)(F)F)cc2)nc1Cl [V.28]	3.89^[a]
O=C(CBr)c1cnc(Oc2ccc(Cl)cc2F)cc1C(F)(F)F [VI.24]	4.34^[a]
O=C(Cn1cncn1)c1ccc(Oc2ccc(Cl)cc2F)nc1C(F)(F)F [VII.37]	2.74^[a]
Cc1ccc(Oc2ccc(C(=O)Cn3cncn3)c(Cl)n2)cc1Cl [VII.11]	3.02^[a]
CC(O)(Cn1cncn1)c1cnc(Oc2ccc(C(F)(F)F)cc2)cc1Cl (stereo not shown) [I.78]	2.88^[a]
OC(Cn1cncn1)c1cnc(Oc2ccc(Cl)cc2F)cc1C(F)(F)F (stereo not shown) [I.57]	2.86^[a]
OC(Cn1cncn1)(c1ccc(Oc2ccc(Br)cc2)nc1C(F)(F)F)C1CC1 (racemic) [I.81]	3.70^[a]
O=C(CCl)c1cnc(Oc2ccccc2)cc1Cl [VI.05]	3.28^[a]
OC(Cn1cncn1)c1cnc(Oc2ccc(S(F)(F)(F)(F)F)cc2)cc1C(F)(F)F (single isomer, unassigned) [I.86]	3.11^[a]
O=C(c1ccc(Oc2ccc(C(F)F)cc2)nc1C(F)(F)F)C1CC1 [V.44]	3.80^[a]
OC(Cn1cncn1)(c1ccc(Oc2ccc(Br)cc2)nc1C(F)(F)F)C1CC1 (single isomer, unassigned) [I.99]	3.41^[a]
O=C(CCl)c1ccc(Oc2ccc(Cl)cc2)nc1F [VI.20]	3.69^[a]
FC(F)c1ccc(Oc2ccc(C3(C4CC4)CO3)c(C(F)(F)F)n2)cc1 (stereo not shown) [IX.05]	4.49^[a]
OC(Cn1cncn1)(c1ccc(Oc2ccc(S(F)(F)(F)(F)F)cc2)nc1C(F)(F)F)C1CC1 (stereo not shown) [I.97]	3.80^[a]
OC(Cn1cncn1)c1cnc(Oc2ccc(Br)cc2)cc1C(F)F (stereo not shown) [I.63]	2.59^[a]
CC(=O)c1ccc(Oc2ccc(Cl)cc2)nc1C(F)F [V.05]	3.35^[a]
CC(=O)c1ccc(Oc2ccc(Cl)cc2F)nc1C(F)(F)F [V.38]	3.87^[a]
OC(Cn1cncn1)c1cnc(Oc2ccc(S(F)(F)(F)(F)F)cc2)cc1C(F)(F)F (single isomer, unassigned) [I.83]	3.11^[a]
CC(O)(Cn1cncn1)c1cnc(Oc2ccc(Cl)cc2)cc1Cl (racemic) [I.08]	2.50^[a]
CC(O)(Cn1cncn1)c1ccc(Oc2ccc(Cl)cc2)nc1C(F)(F)F (stereo not shown) [I.67]	2.68^[a]

SMILES	LogP
O=C(Cn1cncn1)c1ccc(Oc2ccc(OC(F)(F)F)c(Cl)c2)nc1Cl [VII.04]	3.33^[a]
CC(=O)c1ccc(Oc2ccc(Br)cc2)nc1C(F)F [V.34]	3.46^[a]
OC(Cn1cncn1)c1ccc(Oc2ccc(F)cc2)nc1Cl (racemic) [I.17]	2.08^[a]
CC(O)(Cn1cncn1)c1cnc(Oc2ccc(Cl)cc2)cc1Cl (single isomer, unassigned) [I.53]	2.53^[a]
O=C(Cn1cncn1)c1cnc(Oc2ccc(S(F)(F)(F)(F)F)cc2)cc1C(F)(F)F [VII.21]	3.35^[a]
O=C(CCl)c1ccc(Oc2ccc(Cl)cc2F)nc1C(F)(F)F [VI.35]	4.11^[a]
CC(O)(Cn1cncn1)c1cnc(Oc2ccc(Br)cc2)cc1C(F)F (stereo not shown) [I.82]	2.78^[a]
COc1ccc(Oc2ccc(C(O)Cn3cncn3)c(Cl)n2)c(Cl)c1 (racemic) [I.30]	2.32^[a]
OC(Cn1cncn1)c1ccc(Oc2ccc(Cl)cc2)nc1C(F)F (racemic) [I.25]	2.44^[a]
CC(O)(Cn1cncn1)c1ccc(Oc2ccc(Cl)cc2F)nc1C(F)(F)F (stereo not shown) [I.89]	3.15^[a]
CC(O)(Cn1cncn1)c1ccc(Oc2ccc(Cl)cc2)nc1F (stereo not shown) [I.42]	2.46^[a]
OC(Cn1cncn1)(c1ccc(Oc2ccc(Cl)cc2)nc1C(F)(F)F)C1CC1 (stereo not shown) [I.71]	3.35^[a]
O=C(Cn1cncn1)c1ccc(Oc2ccc(Cl)c(Cl)c2)nc1Cl [VII.03]	3.06^[a]
O=C(CCl)c1ccc(Oc2ccc(S(F)(F)(F)(F)F)cc2)nc1Cl [VI.30]	4.21^[a]
O=C(CCl)c1cnc(Oc2ccc(Br)cc2)cc1C(F)(F)F [VI.23]	4.16^[a]
O=C(Cn1cncn1)c1ccc(Oc2ccc(OC(F)(F)F)cc2)nc1Cl [VII.08]	2.95^[a]
O=C(CCl)c1ccc(Oc2ccc(S(F)(F)(F)(F)F)cc2)nc1C(F)(F)F [VI.29]	4.29^[a]
OC(Cn1cncn1)c1cnc(Oc2ccc(Br)cc2)cc1C(F)(F)F (stereo not shown) [I.48]	2.75^[a]
O=C(Cn1cncn1)c1cnc(Oc2ccc(C(F)(F)F)cc2)cc1Cl [VII.40]	2.92^[a]
O=C(CCl)c1ccc(Oc2ccc(OC(F)(F)F)cc2)nc1Cl [VI.08]	4.09^[a]
CC(=O)c1ccc(Oc2c(F)cc(Cl)cc2F)nc1C(F)(F)F [V.31]	4.06^[a]

SMILES	LogP
O=C(CBr)c1ccc(Oc2ccc(Cl)cc2)nc1C(F)(F)F [VI.34]	4.19^[a]
CC(=O)c1ccc(Oc2ccc(C(F)F)cc2)nc1Cl [V.14]	3.15^[a]
CCC(O)(Cn1cncn1)c1ccc(Oc2ccc(Cl)cc2)nc1C(F)(F)F (stereo not shown) [I.103]	3.19^[a]
O=C(Cn1cncn1)c1ccc(Oc2c(F)cc(Cl)cc2F)nc1C(F)(F)F [VII.33]	2.96^[a]
FC(F)(F)c1ccc(Oc2ccc(C3(C4CC4)CO3)c(C(F)(F)F)n2)cc1 (stereo not shown) [IX.11]	5.00^[a]
O=C(Cn1cncn1)c1ccc(Oc2ccc(C(F)(F)F)cc2)nc1C(F)(F)F [VII.32]	3.04^[a]
O=C(Cn1cncn1)c1ccc(Oc2ccc(Cl)cc2)nc1Cl [VII.09]	2.66^[a]
OC(Cn1cncn1)c1ccc(Oc2ccc(Cl)c(Cl)c2)nc1Cl (racemic) [I.10]	2.80^[a]
CC(=O)c1cnc(Oc2ccc(C(F)(F)F)cc2)cc1Cl [V.18]	3.87^[a]
OC(Cn1cncn1)c1cnc(Oc2ccc(Cl)cc2)cc1Cl (stereo not shown) [I.68]	2.48^[a]
O=C(Cn1cncn1)c1ccc(Oc2ccc(C(F)F)cc2)nc1C(F)(F)F [VII.42]	2.41^[a]
O=C(Cn1cncn1)c1ccc(Oc2ccc(Br)cc2)nc1C(F)(F)F [VII.24]	2.99^[a]
OC(Cn1cncn1)c1ccc(Oc2ccc(Br)cc2)nc1C(F)F (stereo not shown) [I.73]	2.50^[a]
CC(O)(Cn1cncn1)c1cnc(Oc2ccc(Cl)cc2)cc1C(F)F (stereo not shown) [I.64]	2.68^[a]
CC(=O)c1ccc(Oc2ccc(Cl)cc2)nc1OC(F)(F)F [V.06]	4.37^[a]
O=C(CBr)c1cnc(Oc2ccc(Cl)cc2)cc1C(F)(F)F [VI.14]	4.29^[a]
OC(Cn1cncn1)c1ccc(Oc2ccc(C(F)F)cc2)nc1Cl (stereo not shown) [I.38]	2.17^[a]
O=C(Cn1cncn1)c1ccc(Oc2ccc(S(F)(F)(F)(F)F)cc2)nc1C(F)(F)F [VII.31]	3.23^[a]
CC(O)(Cn1cncn1)c1ccc(Oc2ccc(OC(F)(F)F)cc2)nc1C(F)(F)F (stereo not shown) [I.95]	2.98^[a]
CC(=O)c1ncc(Oc2ccc(Cl)cc2)nc1Cl [V.23]	3.51^[a]

Same assay, conditions: reversed phase HPLC column, method [a]: LC-UV, acidic range, 0.1% formic acid in water and acetonitrile as eluent

SMILES	chromatographic logP
CC(=O)c1cnc(Oc2ccc(Cl)cc2)cc1C(F)(F)F [V.02, 1-[6-(4-chlorophenoxy)-4-(trifluoromethyl)-3-pyridyl]ethanone]	3.89
FC(F)(F)c1nc(Oc2ccc(Cl)cc2)ccc1C1(C2CC2)CO1 (stereo not shown) [IX.07, 6-(4-chlorophenoxy)-3-(2-cyclopropyloxiran-2-yl)-2-(trifluoromethyl)pyridine]	4.8
